Assay results from US7161064B2, “Method for producing stably transformed duckweed using microprojectile bombardment” (North Carolina State University, priority 1997, dated 2007).

Assays:
Assay type in all cases: cell-based
Spirodela species = test: Callus induction screen across Lemnaceae strains, frond health; conditions: 4-5 weeks
Method: Duckweed fronds were grown in liquid Schenk and Hildebrandt medium containing 1% sucrose for two weeks at 23° C. under a 16 hr light/8 hr dark photoperiod with light intensity of approximately 40 μmol/m^2·sec prior to experimentation. For callus induction, six basal media were used: Murashige and Skoog, Schenk and Hildebrand (Schenk and Hildebrandt, Can. J. Bot. 50, 199 (1972)), Nitsch and Nitsch, N6 (Chu et al., Scientia Sinica 18, 659 (1975)), Gamborg's B5, and Hoagland's. The two plant growth regulator combinations known to elicit callus proliferation in L. gibba G3 were used: 30 μM 2,4-D and 0.02 μM BA, and 5 μM 2,4-D and 2 μM BA. For each strain, 200 ml of each basal medium was prepared with 3% sucrose, 0.15% Gelrite, and 0.4% Difco Bacto-agar. The 200 ml was divided into 2, 100 ml portions, each to be used to prepare the two plant growth regulator concentrations. The pH of all media was adjusted to 5.8, the media were autoclaved for 30 minutes at 121° C., cooled and 4, 100 mm×15 mm petri dishes were poured from each 100 ml portion.
A 6 media×2 plant growth regulator combinations, 12 treatment, random block experimental design was used for each duckweed strain tested. […] At this time the fronds were evaluated for general health (judged by color: green to yellow, and vigor of proliferation) and the frequency of callus initiation of the three types: Type I, Type II, and Type III.

[1] = system: L. minor strains 8744 and 8627; test: Callus induction from Lemna minor fronds, auxin and cytokinin type and concentration; conditions: MS medium, 6 weeks
Method: In the auxin type and concentration experiment, four auxins: 2,4-D, NAA, IBA and dicamba were tested, each at four concentrations: 2, 5, 10 and 20 μM, for their ability to induce callus formation from L. minor strains 8744 and 8627. The basal medium used was MS and media and experimental protocol was basically that followed in Example 10. Fronds used in this experiment were grown for 2 weeks prior to plating on callus induction medium under 3 different culture conditions: 1) SH medium without plant growth regulators, 2) F medium with 24 μM 2,4-D and 2 μM 2-iP, and 3) SH medium with 24 μM 2,4-D and 2 μM 2-iP. Fronds were separated, the roots cut off and then plated on induction medium. The fronds were incubated under conditions given in Example 8 for 6 weeks at which time cultures were evaluated for the presence or absence of callus induction, the degree to which the callus proliferated, and the basic morphology of the callus present.
In the cytokinin type and concentration experiment, four cytokinins: BA, kinetin, 2-iP, and thidiazuron were tested, each at five concentrations: 0.05, 0.1, 0.5, 1 and 5 μM, for their ability to induce callus formation from L. minor strains 8744 and 8627. The basal medium used was MS and the media and experimental protocol were basically as described in Example 11. Fronds used in this experiment were grown for 2 weeks prior to plating on callus induction medium under 3 different culture conditions: 1) SH medium without plant growth regulators, 2) F medium with 24 μM 2,4-D and 2 μM 2-iP, and 3) SH medium with 24 μM 2,4-D and 2 μM 2-iP. Fronds were separated, the roots cut off and then plated on induction medium. The fronds were incubated under conditions given in Example 8 for 6 weeks at which time cultures were evaluated for the presence or absence of callus induction, the degree to which the callus proliferated, and the basic morphology of the callus.

Lemna gibba G3 = test: Callus induction from Lemna gibba G3 fronds on solid medium with plant growth regulators
Method: Duckweed fronds were grown in liquid Hoagland's medium (Hoagland and Snyder, Proc. Amer. Soc. Hort. Sci. 30, 288 (1933)) containing 3% sucrose for two weeks at 23° C. under a 16 hr light/8 hr dark photoperiod with light intensity of approximately 40 μmol/m^2·sec prior to experimentation. For callus induction, eighteen, 100 ml portions of Murashige and Skoog basal medium (Murashige and Skoog, Physiol. Plant. 15, 473 (1962)) containing 3% sucrose, 0.15% Gelrite and 0.4% Difco Bacto-agar were prepared with 2,4-D concentrations of 10, 20 and 50 μM and BA concentrations of 0, 0.01, 0.1, 1.0, 2.0, and 10.0 μM. All media were pH adjusted to 5.8, autoclaved at 121° C. for 20 minutes, cooled, and each 100 ml was poured into 4, 100 mm×15 mm petri dishes.
(§1) A three 2,4-D concentrations×six BA concentrations, full-factorial experimental design (18 treatments in total) with four replications, with one petri dish per replication and 5 fronds per petri dish was used. For callus induction, 5 individual duckweed fronds were placed abaxial side down on each plate of medium. The 72 plates were incubated at 23° C., for 27 days under a 16 hr light/8 hr dark photoperiod with light intensity of approximately 40 μmol/m^2·sec. After 27 days the duckweed tissue was transferred to fresh media of the same type and incubation was continued another 35 days under the same temperature and light culturing conditions.
Duckweed fronds were grown in liquid Hoagland's medium containing 3% sucrose for two weeks at 23° C. under a 16 hr light/8 hr dark photoperiod with light intensity of approximately 40 μmol/m^2·sec. prior to experimentation. For callus induction, forty 100 ml portions of Murashige and Skoog medium with 3% sucrose, 0.15% Gelrite, and 0.4% Difco Bacto-agar were prepared with dicamba concentrations of 10, 20, 30, 40, 50, 60, 80, 100 μM and BA concentrations of 0.01, 0.05, 0.1, 0.5, and 1.0 μM. All media were pH adjusted to 5.8, autoclaved at 121° C. for 20 minutes, cooled, and each 100 ml was poured into 4, 100 mm×15 mm petri dishes.
as §1, with “An eight dicamba concentrations×five BA” for “A three 2,4-D concentrations×six BA”, “design (40” for “design (18”, “The” for “The 72”, “After 28” for “After 27”, “another 45” for “another 35”
Duckweed fronds were grown in liquid Schenk and Hildebrandt medium containing 1% sucrose for two weeks at 23° C. under a 16 hr light/8 hr dark photoperiod with light intensity of approximately 40 μmol/m^2·sec prior to experimentation. For callus induction, three basal media were tested: Murashige and Skoog, Schenk and Hildebrandt, and N6. Benzyladenine was used as the cytokinin at a concentration of 1 μM. The auxin concentrations varied with auxin type. For the relatively strong auxins, 2,4-D and dicamba, concentrations were 0, 1, 5, 10 and 20 μM. For weak auxins, NAA and IBA, the concentrations were 0, 5, 10, 20 and 50 μM. For each medium dose-response experiment, 2 liters of basal medium were prepared with BA and the pH adjusted to 5.8. The volume was aliquoted as 20, 100 ml portions. To each of these portions, the appropriate amount of auxin was added and the medium was adjusted to 0.15% Gelrite, and 0.4% Difco Bacto-agar. The media were autoclaved for 30 minutes at 121° C., cooled and 4, 100 mm×15 mm petri dishes were poured from each 100 ml portion.
A 3 media×4 auxin×5 concentration combinations, 60 treatment, randomized dose-response experimental design was used. The design was replicated two times, with one petri dish per replication and 5 fronds per petri dish.

In the case of `O=C(O)COc1ccc(Cl)cc1Cl` [2,4-D, 2,4-dichlorophenoxyacetic acid], the frond survival (Spirodela species; higher concentration of 2,4-D (30 μM with 0.02 μM BA)) is reported as “did not survive”, the frond growth (Spirodela species; lower concentration of 2,4-D (5 μM with 2 μM BA)) is reported as “did not grow well” and the “concentration giving the best callus induction” value ([1]; strain 8627, auxin experiment) is reported as 5 µM. For the same compound, the “concentration giving the best callus induction” value ([1]; strain 8744, auxin experiment) was 5 µM, the “concentrations at which callus proliferation was the most vigorous” value (Lemna gibba G3; 2,4-D x BA factorial, Murashige and Skoog medium, 62 days) was 20 to 50 µM and the “compact Type I callus induction on MS medium” value (Lemna gibba G3; auxin with 1 μM BA, five weeks) was “some degree of callus induction”. The “compact Type I callus induction on N6 medium” value (Lemna gibba G3; auxin with 1 μM BA, five weeks) was “produced callus”.
